From patent US10420815B2, “Combinational therapy for synergistic inhibition of gram-positive and gram-negative bacteria” (priority 2015, dated 2019)
Several values for one entry are separate records, joined by “and”; a condition that tells them apart may be missing. Identical values can stand only once. Entries after “also recorded” stand apart in the source; their conditions may differ. Like-named read-outs stand apart in the source and are kept apart here.

Key:
Assay type in all cases: cell-based, Staphylococcus aureus
[1] = tested on: MRSA (ATCC 33593); experiment: microbe, parasite or virus in culture; conditions: for fold decrease of bacitracin MBC by antioxidant: compared to bacitracin alone
Source text: (§1) MRSA (ATCC 33593), MSSA (ATCC 29213), and MRSA USA300 (BAA-1680) strains were purchased from the American Type Culture Collection (ATCC; Manassas, Va.). Eight clinical isolates of MRSA were obtained from the Culture Collection of Antimicrobial Resistant Microbes, Korea National Research Resource Center (KNRRC). Salmonella enterica Typhimurium LT2 was purchased from ATCC, and Escherichia coli O157:H7 is a kind gift from Dr. Sangryeol Ryu (Seoul National University, South Korea). All S. aureus strains were maintained in Trypticase Soy (TS) medium, and E. coli O157:H7 and Salmonella were routinely grown aerobically on Luria-Bertani (LB) media at 37° C. For measuring growth kinetics, an overnight culture of MRSA in Mueller-Hinton (MH) broth was diluted 100-fold in fresh MH broth and cultured until early exponential phase. The culture (200 μl) was transferred to each well of a sterile 96-well plate and incubated at 37° C. with bacitracin alone, alkyl gallate alone, and combination of bacitracin/alkyl gallates at various concentrations. The optical density at 600 nm (OD600) was measured every hour with FLUOstar® Omega (BMG Labtech, Germany).
(§2) Broth micro dilution assays were performed to determine the minimum inhibitory concentrations (MIC) accordance to the M7-A7 protocol of the Clinical and Laboratory Standards Institute (CLSI) guidelines^28. The susceptibility test was carried out with an initial bacterial inoculum of 1.5×10^5 CFU ml^−1. Alkyl gallates and bacitracin were serially diluted in a polystyrene 96 well plate and the plate was incubated at 37° C. for 24 h. Minimum bactericidal concentration (MBC) was determined by spotting 10 μl of cultures from MIC tests onto MH agar and incubated aerobically at 37° C.
(§3) MICs were determined with MRSA and methicillin-sensitive S. aureus (MSSA) using a broth dilution method as described above.
(§4) MRSA and MSSA were cultured overnight with antioxidants (0.5 μg/ml) and bacitracin at various concentrations and 10 μL of the culture was spotted on MH agar plates and incubated aerobically at 37° C. to observe the bacterial viability. The results in FIGS. 9A, 9B, 9C and 9D (photographs of plates) show the Minimal Bactericidal Concentrations (MBCs) for indicated antioxidants. Bacitracin killed MRSA and MSSA at concentrations greater than or equal to 2 μg/mi.

[2] = tested on: MSSA (ATCC 29213); experiment: MIC (broth dilution) and MBC (spotting) of phenolic antioxidants and bacitracin; conditions: for MIC: antioxidant alone; for fold decrease of bacitracin MBC by antioxidant: compared to bacitracin alone
Source text: as §1, §2, §3, §4

[3] = tested on: MRSA (normal MRSA strain, not USA300); experiment: MRSA growth (optical density) with bacitracin and phenolic antioxidants; conditions: for growth of MRSA with bacitracin plus antioxidant: bacitracin 0.002 μg/mL, antioxidant 0.5 μg/mL, FIG. 6; for optical density of MRSA after 18 h culture: inhibition of growth in combination with bacitracin: bacitracin 0.002 μg/ml (ca. 0.0002 U), antioxidant 0.5 μg/ml, FIG. 8
Source text: as §1
MRSA were grown with bacitracin (0.002 μg/mL) with antioxidant (as shown) at 0.5 μg/mL.
FIG. 7A is growth with no added bacitracin or lauryl gallate.
The optical density of MRSA was measured after 18 h culture with bacitracin (0.002 μg/ml) and antioxidants (as indicated at 0.5 μg/ml). Also measured were controls with no additions, with bacitracin alone and with antioxidant alone. FIGS. 8A, 8B, 8C and 8D are graphs illustrating the results.

[4] = tested on: MRSA 3A585; experiment: microbe, parasite or virus in culture
Source text: as §1, §2

[5] = tested on: MRSA 3903; experiment: microbe, parasite or virus in culture
Source text: as §1, §2

[6] = tested on: MRSA 3823; experiment: microbe, parasite or virus in culture
Source text: as §1, §2

[7] = tested on: MRSA 3865; experiment: microbe, parasite or virus in culture
Source text: as §1, §2

[8] = tested on: MRSA 3799; experiment: microbe, parasite or virus in culture
Source text: as §1, §2

[9] = tested on: MRSA 3876; experiment: microbe, parasite or virus in culture
Source text: as §1, §2

[10] = tested on: MRSA 3795; experiment: microbe, parasite or virus in culture
Source text: as §1, §2

[11] = tested on: MRSA 3095; experiment: microbe, parasite or virus in culture; conditions: Staphylococcus aureus; MRSA 3095 (human/skin); read-out: MIC
Source text: as §1, §2

[12] = Staphylococcus aureus, MRSA, antioxidant alone, read-out: MIC
[13] = Staphylococcus aureus, read-out: MIC
[14] = Staphylococcus aureus, MRSA 3903 (human/skin), read-out: MIC
[15] = Staphylococcus aureus, MRSA 3823 (human/nose), read-out: MIC
[16] = Staphylococcus aureus, MRSA 3865 (human/skin), read-out: MIC
[17] = Staphylococcus aureus, MRSA 3799 (human/nose), read-out: MIC
[18] = Staphylococcus aureus, MRSA 3876 (human/skin), read-out: MIC
[19] = Staphylococcus aureus, MRSA 3795 (human/nose), read-out: MIC

Cc1cc(C(C)(C)C)c(O)c(C(C)(C)C)c1 [Butylated hydroxytoluene, butylated hydroxytoluene]
synergistic killing with bacitracin ([1]; MRSA, antioxidant 0.5 μg/ml): did not generate any synergistic killing | MIC [1, 12]: > 1020 µg/mL | MIC [2, 13]: 1020 µg/mL | synergistic killing with bacitracin ([2]; antioxidant 0.5 μg/ml): did not generate any synergistic killing | MIC [2]: >1024 µg/mL | growth of MRSA with bacitracin plus antioxidant [3]: did not show any synergistic effects with bacitracin | optical density of MRSA after 18 h culture: inhibition of growth in combination with bacitracin ([3]; listed as BHT): no synergistic inhibition of growth; also recorded: did not show any synergistic antimicrobial effects

O=C(N[C@H](CO)[C@H](O)c1ccc([N+](=O)[O-])cc1)C(Cl)Cl [CL, chloramphenicol]
MIC ([4]; Staphylococcus aureus, MRSA 3A585 (human/blood), read-out: MIC): ≤ 0.25 µg/mL | MIC [5, 14]: ≥ 128 µg/mL | MIC [6, 15]: ≥ 128 µg/mL | MIC [7, 16]: ≥ 128 µg/mL | MIC [8, 17]: ≥ 128 µg/mL | MIC [9, 18]: < 0.12 µg/mL | MIC [10, 19]: ≥ 128 µg/mL

O=C(O)/C=C/c1ccc(O)c(O)c1 [Caffeic acid, caffeic acid]
MIC [1, 12]: > 1020 µg/mL | MIC [2, 13]: > 1020 µg/mL

Oc1cc(O)c2c(c1)OC(c1ccc(O)c(O)c1)C(O)C2 (stereo not drawn) [Catechin(+), catechin]
MIC ([1]; MRSA, antioxidant alone): >1024 µg/mL | MIC [2]: >1024 µg/mL

O=c1cc(-c2ccccc2)oc2cc(O)cc(O)c12 [Chrysin, chrysin]
MIC [1, 12]: > 1020 µg/mL | MIC [2, 13]: > 1020 µg/mL

O=C(O)C=Cc1ccccc1 [Cinnamic acid, cinnamic acid]
MIC [1, 12]: > 1020 µg/mL | MIC [2, 13]: > 1020 µg/mL

Oc1cc(O)c2c(c1)O[C@H](c1ccc(O)c(O)c1)[C@H](O)C2 [Epicatechin, epicatechin]
MIC [1, 12]: > 1020 µg/mL | MIC [2, 13]: > 1020 µg/mL

O=C(O[C@@H]1Cc2c(O)cc(O)cc2O[C@@H]1c1cc(O)c(O)c(O)c1)c1cc(O)c(O)c(O)c1 [Epigallocatechin gallate, epigallocatechin gallate]
fold decrease of bacitracin MBC by antioxidant ([1]; MRSA, antioxidant 0.5 μg/ml): > 32 fold | MIC ([1]; MRSA, antioxidant alone): 512 µg/mL and 256 µg/mL | fold decrease of bacitracin MBC by antioxidant ([2]; antioxidant 0.5 μg/ml): 16 fold | MIC [2]: 128 µg/mL and 64 µg/mL | growth of MRSA with bacitracin plus antioxidant [3]: significantly inhibited the growth of MRSA | optical density of MRSA after 18 h culture: inhibition of growth in combination with bacitracin [3]: significantly inhibited MRSA

COc1ccc([C@@H]2CC(=O)c3c(O)cc(O[C@@H]4O[C@H](CO[C@@H]5O[C@@H](C)[C@H](O)[C@@H](O)[C@H]5O)[C@@H](O)[C@H](O)[C@H]4O)cc3O2)cc1O [Hesperedin, hesperidin]
MIC ([1]; MRSA, antioxidant alone): >1024 µg/mL | MIC [2]: >1024 µg/mL

O=c1c(O)c(-c2ccc(O)cc2O)oc2cc(O)cc(O)c12 [Morin, morin]
MIC [1, 12]: > 1020 µg/mL | MIC [2, 13]: > 1020 µg/mL

CCn1cc(C(=O)O)c(=O)c2cc(F)c(N3CCNCC3)cc21 [NOR, norfloxacin]
MIC [5, 14]: 64 µg/mL | MIC [6, 15]: 32 µg/mL | MIC [7, 16]: ≥ 128 µg/mL | MIC [8, 17]: 0.25 µg/mL | MIC [11]: ≥ 128 µg/mL | MIC [9, 18]: 0.25 µg/mL | MIC [10, 19]: 0.5 µg/mL

O=C1C[C@@H](c2ccc(O)cc2)Oc2cc(O)cc(O)c21 [Narigenine, naringenin]
MIC [1, 12]: > 1020 µg/mL | MIC [2, 13]: > 1020 µg/mL

O=c1c(O)c(-c2ccc(O)c(O)c2)oc2cc(O)cc(O)c12 [Quercetin, quercetin]
MIC [1, 12]: > 1020 µg/mL | MIC [2, 13]: > 1020 µg/mL

O=C(O)c1ccccc1O [Salicylic acid, salicylic acid]
MIC [1, 12]: > 1020 µg/mL | MIC [2, 13]: > 1020 µg/mL

COc1cc(/C=C/C(=O)O)cc(OC)c1O [Sinapic acid, sinapic acid]
MIC ([1]; Staphylococcus aureus): > 1020 µg/mL | MIC [2, 13]: > 1020 µg/mL

CN(C)[C@@H]1C(O)=C(C(N)=O)C(=O)[C@@]2(O)C(O)=C3C(=O)c4c(O)cccc4[C@@](C)(O)[C@H]3C[C@@H]12 [TET, tetracycline]
MIC ([4]; Staphylococcus aureus, MRSA): ≥ 8 µg/mL | MIC ([5]; Staphylococcus aureus, MRSA): 128 µg/mL | MIC ([6]; Staphylococcus aureus, MRSA): 64 µg/mL | MIC ([7]; Staphylococcus aureus, MRSA): 32 µg/mL | MIC ([8]; Staphylococcus aureus, MRSA): 64 µg/mL | MIC ([9]; Staphylococcus aureus, MRSA): 16 µg/mL | MIC ([10]; Staphylococcus aureus, MRSA): 16 µg/mL

O=C(OC[C@H]1O[C@@H](OC(=O)c2cc(O)c(O)c(OC(=O)c3cc(O)c(O)c(O)c3)c2)[C@H](OC(=O)c2cc(O)c(O)c(OC(=O)c3cc(O)c(O)c(O)c3)c2)[C@@H](OC(=O)c2cc(O)c(O)c(OC(=O)c3cc(O)c(O)c(O)c3)c2)[C@@H]1OC(=O)c1cc(O)c(O)c(OC(=O)c2cc(O)c(O)c(O)c2)c1)c1cc(O)c(O)c(OC(=O)c2cc(O)c(O)c(O)c2)c1 [Tannic acid, tannic acid]
fold decrease of bacitracin MBC by antioxidant ([1]; MRSA, antioxidant 0.5 μg/ml): 4 fold | MIC ([1]; Staphylococcus aureus): 512 µg/mL | MIC [1, 12]: 1020 µg/mL | MIC [2, 13]: 256 µg/mL | fold decrease of bacitracin MBC by antioxidant ([2]; antioxidant 0.5 μg/ml): 8 fold | MIC [2]: 128 µg/mL | growth of MRSA with bacitracin plus antioxidant [3]: significantly inhibited the growth of MRSA | optical density of MRSA after 18 h culture: inhibition of growth in combination with bacitracin [3]: significantly inhibited MRSA

O=C1c2c(O)cc(O)cc2O[C@H](c2ccc(O)c(O)c2)[C@H]1O [Taxifolin, taxifolin]
MIC [1, 12]: > 1020 µg/mL | MIC [2, 13]: > 1020 µg/mL

COc1cc(C(=O)O)ccc1O [Vanillic acid, vanillic acid]
MIC [1, 12]: > 1020 µg/mL | MIC [2, 13]: > 1020 µg/mL

gentamicin
MIC ([4]; MRSA 3A585 (human/blood)): ≥8 µg/mL | MIC ([5]; MRSA 3903 (human/skin)): ≥128 µg/mL | MIC ([6]; MRSA 3823 (human/nose)): ≥128 µg/mL | MIC ([7]; MRSA 3865 (human/skin)): 32 µg/mL | MIC ([8]; MRSA 3799 (human/nose)): 32 µg/mL | MIC ([9]; MRSA 3876 (human/skin)): 32 µg/mL | MIC ([10]; MRSA 3795 (human/nose)): ≥128 µg/mL

penicillin
MIC ([5]; MRSA 3903 (human/skin)): 32 µg/mL | MIC ([6]; MRSA 3823 (human/nose)): 16 µg/mL | MIC ([7]; MRSA 3865 (human/skin)): 16 µg/mL | MIC ([8]; MRSA 3799 (human/nose)): 8 µg/mL | MIC ([9]; MRSA 3876 (human/skin)): 16 µg/mL | MIC ([10]; MRSA 3795 (human/nose)): 16 µg/mL
